Consider 20 compounds from US11731966B2, “Compounds and their methods of use” (Praxis Precision Medicines, Inc., priority 2017, dated 2023).

The assay has as its target T1, human NaV1.6 (hNaV1.6) (Homo sapiens, UniProt Q9UQD0).
T1 construct: expressed in transfected cells; host or cells: HEK-293 (G418 selection)
The assay is described as follows: Modulation of late (persistent) sodium current (INaL), PatchXpress electrophysiology, HEK-293 cells expressing hNaV1.6, ATX-II evoked. It is filed as cell-based. The settings on record: 1 μM compound, HEK-293 cells expressing recombinant human NaV1.6, late current evoked by 300 nM ATX-II, steady-state inhibition; for inhibition at 1 µM: HEK293. As to the method:
Functional characterization of exemplary compounds to modulate INaL expressed by the NaV16 voltage-gated sodium channel was accomplished using the PatchXpress™ high throughput electrophysiology platform (Molecular Devices, Sunnyvale, Calif.). HEK-293 cells expressing recombinant, human NaV1.6 (hNaV1.6) were grown in DMEM/high-glucose Dulbecco's modified, 10% FBS, 2 mM sodium pyruvate, 10 mM HEPES and 400 μg/mL G418. Cells were grown to 50%-80% confluency prior to harvesting. Trypsinized cells were washed, allowed to recover for 1 hour and then resuspended in extracellular recording solution at a concentration of 1×10^6 cells/ml. The onboard liquid handling facility of the PatchXpress was used for dispensing cells and applying test compounds. NaV late currents were evoked by the application of 300 nM ATX-II. INaL was evoked by depolarizing pulses to 0 mV for 200 ms from a non-inactivating holding potential (e.g., −120 mV) at a frequency of 0.1 Hz. INaL amplitude and stability were determined by analyzing the mean current amplitude over the final 20 ms of the test pulse. Following steady state block with exemplary compounds (e.g., as described herein), a Na^+ free solution containing an impermeant cation (e.g., Choline or NDMG) was added to confirm the identify of the sodium current. Percent steady-state inhibition of INaL was calculated as: [(INaL_compound)/(INaL_control)]*100, where INaL_compound and INaL_control represent INaL recorded in the presence or absence of compound, respectively.
In this table, “A” indicates inhibition of less than 30%; “B” indicates inhibition of between about 30% to about 70%; and “C” indicates inhibition of greater than 70%.

The structures appear in SMILES notation.

For orientation: inhibition means the relative decrease from the control value, in per cent.

T1 sequence (Q9UQD0 whole entry): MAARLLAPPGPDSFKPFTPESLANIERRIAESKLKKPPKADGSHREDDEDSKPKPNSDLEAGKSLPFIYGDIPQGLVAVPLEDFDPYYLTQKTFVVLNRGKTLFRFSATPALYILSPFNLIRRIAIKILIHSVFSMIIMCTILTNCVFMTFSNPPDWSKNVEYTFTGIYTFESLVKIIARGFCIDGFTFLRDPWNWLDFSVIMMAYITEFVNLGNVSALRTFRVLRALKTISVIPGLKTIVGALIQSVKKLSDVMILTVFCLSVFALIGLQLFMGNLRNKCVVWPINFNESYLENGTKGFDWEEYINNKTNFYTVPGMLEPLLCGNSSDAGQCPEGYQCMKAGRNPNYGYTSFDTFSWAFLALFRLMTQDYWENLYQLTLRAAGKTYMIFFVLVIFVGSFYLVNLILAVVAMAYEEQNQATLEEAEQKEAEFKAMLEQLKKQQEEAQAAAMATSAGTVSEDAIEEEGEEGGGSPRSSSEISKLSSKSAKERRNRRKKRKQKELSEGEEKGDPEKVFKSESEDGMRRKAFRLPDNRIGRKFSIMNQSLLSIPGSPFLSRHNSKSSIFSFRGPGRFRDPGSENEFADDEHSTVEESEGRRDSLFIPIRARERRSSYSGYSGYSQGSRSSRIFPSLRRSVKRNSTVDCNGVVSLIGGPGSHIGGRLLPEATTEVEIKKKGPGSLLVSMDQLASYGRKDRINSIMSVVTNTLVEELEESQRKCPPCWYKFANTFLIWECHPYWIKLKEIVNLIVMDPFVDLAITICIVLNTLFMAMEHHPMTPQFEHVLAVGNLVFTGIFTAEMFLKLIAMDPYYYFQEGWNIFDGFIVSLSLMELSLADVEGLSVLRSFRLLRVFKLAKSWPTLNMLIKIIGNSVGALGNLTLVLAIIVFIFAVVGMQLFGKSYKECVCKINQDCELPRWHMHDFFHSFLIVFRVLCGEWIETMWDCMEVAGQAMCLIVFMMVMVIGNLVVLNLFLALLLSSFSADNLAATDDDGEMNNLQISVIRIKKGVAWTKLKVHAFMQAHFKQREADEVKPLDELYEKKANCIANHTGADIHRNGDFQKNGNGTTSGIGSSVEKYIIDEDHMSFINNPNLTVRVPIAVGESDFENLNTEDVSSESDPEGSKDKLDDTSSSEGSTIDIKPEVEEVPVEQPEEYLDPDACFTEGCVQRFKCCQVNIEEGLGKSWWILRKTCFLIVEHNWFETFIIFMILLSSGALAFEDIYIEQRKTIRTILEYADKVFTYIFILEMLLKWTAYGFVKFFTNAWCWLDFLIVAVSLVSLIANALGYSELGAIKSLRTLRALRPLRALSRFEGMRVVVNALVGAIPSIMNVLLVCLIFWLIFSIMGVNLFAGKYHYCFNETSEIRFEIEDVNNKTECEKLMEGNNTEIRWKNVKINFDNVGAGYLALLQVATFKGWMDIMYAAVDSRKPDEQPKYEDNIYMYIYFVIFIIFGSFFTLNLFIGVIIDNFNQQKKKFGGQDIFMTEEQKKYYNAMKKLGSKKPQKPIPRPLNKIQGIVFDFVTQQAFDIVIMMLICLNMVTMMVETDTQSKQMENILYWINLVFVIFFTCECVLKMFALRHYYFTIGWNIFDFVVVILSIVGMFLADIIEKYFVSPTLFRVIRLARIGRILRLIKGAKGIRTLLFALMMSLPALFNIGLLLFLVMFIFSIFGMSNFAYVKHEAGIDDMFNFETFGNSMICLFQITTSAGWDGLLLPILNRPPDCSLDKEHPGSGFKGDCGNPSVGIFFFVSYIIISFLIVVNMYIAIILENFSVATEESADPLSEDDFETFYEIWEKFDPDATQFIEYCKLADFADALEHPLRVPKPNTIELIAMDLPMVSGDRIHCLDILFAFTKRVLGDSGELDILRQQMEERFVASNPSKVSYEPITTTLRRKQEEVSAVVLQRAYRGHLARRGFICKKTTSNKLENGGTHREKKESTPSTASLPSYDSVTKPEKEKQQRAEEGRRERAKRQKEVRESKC

Regarding `COc1cc(OC(F)(F)F)ccc1-c1ccc2nnn(CC(F)(F)F)c2n1` [Compound 17], the “INaL hNaV1.6 (1 μM, % inhibition)” value was “C (inhibition of greater than 70%)”.
As to `Cc1nnc(CCn2nnc3ccc(-c4ccc(OC(F)(F)F)cc4)nc32)o1` [Compound 9], the inhibition at 1 µM lay within 30 to 70%.
Same read-out and setting: next, `CCn1nnc2ccc(-c3ccc(OC(F)(F)F)cc3)cc21` [Compound 6]: 30 to 70%; `N#CC1(c2ccc(-c3ccc4nnn(CC(F)(F)F)c4c3)cc2)CC1` [Compound 5]: less than 30%; `FC(F)(F)Oc1ccc(-c2ccc3nn[nH]c3c2)cc1` [Compound 7]: less than 30%.
Regarding `FC(F)(F)Cn1nnc2ccc(-c3ccc(OC4CC(F)(F)C4)nc3)cc21` [Compound 10], the “INaL hNaV1.6 (1 μM, % inhibition)” value is “A (inhibition of less than 30%)”.
Take `COCCn1nnc2ccc(-c3ccc(OC(F)(F)F)cc3)cc21` [Compound 16]: the inhibition at 1 µM lay within 30 to 70%.
On to `COc1cc(OC(F)(F)F)ccc1-c1ccc2nnn(CC(F)(F)F)c2c1` [Compound 11], for which the “INaL hNaV1.6 (1 μM, % inhibition)” value is reported as “A (inhibition of less than 30%)”.
With `FC(F)(F)Cn1nnc2ncc(-c3ccc(OC(F)(F)F)cc3)cc21` [Compound 21], the inhibition at 1 µM was less than 30%.
For the compound `FC(F)(F)Cn1nnc2cnc(-c3ccc(OC(F)(F)F)cc3)cc21` [Compound 20], the “INaL hNaV1.6 (1 μM, % inhibition)” value is given as “A (inhibition of less than 30%)”.
`FC(F)Cn1nnc2ccc(-c3ccc(OC(F)(F)F)cc3)cc21` [Compound 13]: the inhibition at 1 µM was less than 30%.
With `COCc1cc(OC(F)(F)F)ccc1-c1ccc2nnn(CC(F)(F)F)c2n1` [Compound 18], the “INaL hNaV1.6 (1 μM, % inhibition)” value is reported as “C (inhibition of greater than 70%)”.
On the same count and under the same terms, next, `FC(F)(F)Cn1nnc2ccc(-c3ccc(OC4CC(F)(F)C4)cc3)cc21` [Compound 14]: “B (inhibition of between about 30% to about 70%)”.
`FC(F)(F)Cn1nnc2ccc(-c3ccc(OC(F)(F)F)cc3)cc21` [Compound 2]: the inhibition at 1 µM was greater than 70%.
The same measure, in the same setting: in the case of `FC(F)(F)Cn1nnc2ccc(-c3ccc(OC(F)(F)F)cc3)nc21` [Compound 1] it was 30 to 70%.
Consider `FC(F)(F)COc1ccc(-c2ccc3nnn(CC(F)(F)F)c3c2)cn1` [Compound 12], for which the “INaL hNaV1.6 (1 μM, % inhibition)” value is given as “B (inhibition of between about 30% to about 70%)”.
On the same count and under the same terms, in the case of `Cn1nnc2ccc(-c3ccc(OC(F)(F)F)cc3)cc21` [Compound 8] it was “B (inhibition of between about 30% to about 70%)”.
On to `COCc1cc(OC(F)(F)F)ccc1-c1ccc2nnn(CC(F)(F)F)c2c1` [Compound 4], for which the inhibition at 1 µM lay in the range of 30 to 70%.
Still for that read-out and setting: next, `FC(F)(F)Cn1nnc2cnc(-c3ccc(OC(F)(F)F)cc3)nc21` [Compound 19]: less than 30%.
Take `Cc1nnc(CCn2nnc3ccc(-c4ccc(OC(F)(F)F)cc4)cc32)o1` [Compound 15]: the “INaL hNaV1.6 (1 μM, % inhibition)” value is reported as “B (inhibition of between about 30% to about 70%)”.
